According to patent publication US12116356B2, “N-heterocyclic five-membered ring-containing capsid protein assembly inhibitor, pharmaceutical composition thereof, and use thereof” (CHIA TAI TIANQING PHARMACEUTICAL GROUP CO., LTD., priority 2018, dated 2024):

Columns and labels:
[1] = target: CYP 2B6 (Homo sapiens (Human), UniProt P20813); assay: CYP450 enzyme inhibition study (liver microsomes, subtype IC50); format: in vitro ADME; settings: 30 minutes, read-out: Subtypes IC50 2B6
Experimental: (§1) 500 μL of a final incubation system contains 50 μL of liver microsomes (protein concentration: 0.2 mg/mL), 1 μL of mixed CYP450 specific substrates (CYP1A2, CYP 2B6, CYP 2C9, CYP2C19, CYP 2D6, and CYP 3A4), 398 μL PBS buffer (PH7.4), 1 μL specific positive inhibitor (positive control group) or the test compound (formulated with acetonitrile), and 50 μL NADPH+MgCl2. Duplicate incubation systems of 0.5 mL each were formulated for each CYP450 subtype. A total volume of 450 μL of a uniformly mixed solution of the substrate and the enzyme was formulated in each tube, and the solution and NADPH were pre-incubated at 37° C. for 5 minutes, respectively. Then 50 μL of the mixed solution of NADPH+MgCl2 was added for reaction. 50 μL of the reaction solution was taken out at 30 minutes, and the reaction was terminated with 300 μL of ice acetonitrile containing an internal standard. In addition, two control groups of 500 μL each without NADPH were prepared in parallel as a negative control group.
(§2) Sample pre-treatment: To 50 μL of the incubated sample was added 300 μL of ice acetonitrile containing an internal standard, and then precipitated. After vortexing for 5 minutes, the sample was centrifugated (12000 rpm, 4° C.) for 10 minutes. 75 μL of the supernatant was pipetted, and 75 μL of ultrapure water was added thereto for dilution and mixed uniformly. 1 μL of the resulting solution was injected for analysis.

[2] = target: CYP2C19 (Homo sapiens (Human), UniProt P33261); assay: as above; format: in vitro ADME; settings: 30 minutes, read-out: Subtypes IC50 2C19
CYP2C19, sequence (P33261 whole entry): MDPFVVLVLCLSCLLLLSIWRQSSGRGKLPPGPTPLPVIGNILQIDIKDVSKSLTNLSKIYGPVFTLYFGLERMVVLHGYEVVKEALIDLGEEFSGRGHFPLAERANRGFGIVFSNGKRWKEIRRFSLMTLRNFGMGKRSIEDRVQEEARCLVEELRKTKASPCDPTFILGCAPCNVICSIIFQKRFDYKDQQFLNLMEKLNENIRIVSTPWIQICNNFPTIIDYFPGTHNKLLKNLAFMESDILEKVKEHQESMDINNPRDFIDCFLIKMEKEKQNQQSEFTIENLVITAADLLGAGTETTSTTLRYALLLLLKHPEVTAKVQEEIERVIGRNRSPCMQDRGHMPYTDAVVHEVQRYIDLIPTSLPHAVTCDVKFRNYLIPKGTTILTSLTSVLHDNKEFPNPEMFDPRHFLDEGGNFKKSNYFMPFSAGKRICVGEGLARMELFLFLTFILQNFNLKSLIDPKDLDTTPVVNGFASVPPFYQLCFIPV
Experimental: as §1, §2

[3] = Plasma protein binding assay (equilibrium dialysis), rat plasma; format: in vitro ADME
Experimental: (§3) Formulation of plasma sample: 495 μL of blank plasmas of the corresponding species (mouse, rat, dog, monkey, and human) were drawn respectively, and thereto was added 5 μL of the corresponding test compound solution or positive control to give plasma sample solutions having a plasma drug concentration of the compound of 1 μM, and 10 μM, respectively (formulated with acetonitrile).
(§4) The pre-treated dialysis membrane was placed in a high-throughput equilibrium dialysis device, and 100 μL of the plasma sample solution and PBS buffer solution were drawn and added respectively to both sides of the dialysis membrane (sample side and buffer side) (n=3). After the equilibration device was sealed with a film, it was incubated at 37° C. overnight (100 rpm). After dialysis equilibrium was reached, 50 μL samples were drawn from the sample side and the buffer side, respectively, and the reaction was terminated by adding ice acetonitrile containing an internal standard.
as §2, with “plasma-side” for “incubated”, “450” for “300”, “analysis. To 50 μL of the PBS-side sample was added 250 μL of ice acetonitrile with an internal standard, and precipitated. After vortexing for 5 min, the sample was centrifugated (12000 rpm, 4° C.) for 10 min. 75 μL of the supernatant was pipetted, and 75 μL of ultrapure water was added thereto for dilution and mixed uniformly. 2 μL of the resulting solution was injected for analysis.” for “analysis.”

[4] = Plasma protein binding assay (equilibrium dialysis), monkey plasma; format: in vitro ADME
Experimental: as §3, §4
as §2, with “plasma-side” for “incubated”, “450” for “300”, “analysis. To 50 μL of the PBS-side sample was added 250 μL of ice acetonitrile with an internal standard, and precipitated. After vortexing for 5 min, the sample was centrifugated (12000 rpm, 4° C.) for 10 min. 75 μL of the supernatant was pipetted, and 75 μL of ultrapure water was added thereto for dilution and mixed uniformly. 2 μL of the resulting solution was injected for analysis.” for “analysis.”

[5] = In vitro cytotoxicity (CCK-8) in HepG2.2.15 cells; format: cell-based; settings: human
Experimental: A bottle of HepG2.2.15 or HepAD38 cells in good exponential growth state was taken, washed once by adding 5 mL PBS, and then thereto was added 3 mL trypsin. The sample was digested in a cell culture incubator, and taken out from time to time and observed under a microscope. When the cells just fell off, 1 mL trypsin was discarded. The residual liquid was placed in a cell culture incubator at 37° C. and digested for 8-15 min. The cells were taken out and observed under a microscope (whether the cells were individually round and there was no adhesion between the cells). 5 mL MEM medium was added for cell resuspension. The cells were then subjected to cell counting with a cell counter, diluted with a complete medium, and adjusted to a cell density of 2*10^5 cells/mL. Then the cells were seeded at 100 μL/well in a 96-well plate with a multi-channel pipette (the 96-well plate was coated with 50 μg/mL Collagen I solution in advance), and cultured in a constant temperature CO2 incubator for 24 h. The cells were treated by drug administration, and fresh medium containing the compound was used to replace the spent medium every 3 days. To control wells was added a drug-free medium containing 0.5% DMSO, and a control well containing a common medium was set up. 6 days after the administration, CCK-8 was added at 10 μL/well. After 1 to 2 hours, the absorbance was detected with microplate reader at 450 nm, and the inhibition rate and the CC50 were calculated.

[6] = system: HBV DNA in HepAD38 cells; assay: In vitro cell HBV DNA inhibitory activity (anti-HBV activity) in HepAD38 cells; format: cell-based; settings: Hepatitis B virus, 144 h; anti-HBV activity in HepAD38 cells, 6 days treatment, intracellular capsid HBV DNA by qPCR; read-out: EC50
Method in brief: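 HepG2.2.15 or HepAD38 cells on collagen-coated plates were grown 48 h, then treated 6 days with 10-point two-fold compound dilutions, with medium and compound refreshed every 72 h. Intracellular capsid HBV DNA quantified by real-time qPCR. EC50 from Ct-based inhibition by four-parameter fit.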

CYP 2B6, sequence (P20813 whole entry): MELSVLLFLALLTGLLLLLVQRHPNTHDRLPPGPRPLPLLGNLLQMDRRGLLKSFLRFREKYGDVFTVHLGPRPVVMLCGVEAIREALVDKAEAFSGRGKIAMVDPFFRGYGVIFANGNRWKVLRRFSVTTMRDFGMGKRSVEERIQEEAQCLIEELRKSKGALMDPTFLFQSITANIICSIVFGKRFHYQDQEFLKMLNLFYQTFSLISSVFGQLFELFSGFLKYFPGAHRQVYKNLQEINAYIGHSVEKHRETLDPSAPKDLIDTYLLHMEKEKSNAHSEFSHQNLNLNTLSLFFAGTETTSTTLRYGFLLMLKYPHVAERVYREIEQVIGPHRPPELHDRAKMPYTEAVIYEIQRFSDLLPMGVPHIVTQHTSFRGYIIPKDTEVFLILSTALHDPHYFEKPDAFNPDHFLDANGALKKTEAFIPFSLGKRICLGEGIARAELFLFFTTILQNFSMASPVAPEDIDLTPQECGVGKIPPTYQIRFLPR

Row | SMILES | IC50 [1] | IC50 [2] | Binding rate ([3]; 1 μM) | Binding rate ([3]; 10 μM) | Binding rate ([4]; 1 μM) | Binding rate ([4]; 10 μM) | CC50 at 6 days [5] | EC50 [6]
1 | Cc1c(C(=O)Nc2ccc(F)c(C#N)c2)c(C)n(C)c1C(=O)C(=O)N[C@@H](C)C(F)(F)F [Example 12] | 146 µM | 60 µM | 82.0% | 79.2% | 90.7% | 90.6% | > 100 µM | < 0.01 µM
2 | Cc1c(C(=O)Nc2ccc(F)c(C#N)c2)c(C)n(C)c1C(=O)C(=O)NC1(C(F)(F)F)COC1 [Example 25, N-(3-cyano-4-fluorophenyl)-1,2,4-trimethyl-5-(2-oxo-2-((3-(trifluoromethyl)oxetan-3-yl)amino)acetyl)-1H-pyrrole-3-carboxamide] | 61.1 µM | 24.9 µM | 79.5% | 77.0% | 87.4% | 85.6% | > 100 µM | < 0.01 µM
